What was measured:
[1] = tested on: COX-2; experiment: COX-2 protein, NTI164 plus prednisone (Example 8); format: cell-based; settings: PDN 5 uM; NTI164 7.5 ug/ml; Interleukin & Interferon activation =1
Experimental: Cells were fixed for 10 min with 4% paraformaldehyde (PFA) in PBS. After 3×5 minutes washing with PBS, cells were incubated with primary antibodies. (anti-COX2) 1:1000 overnight at 4° C., and after 3×5 minutes washing in PBS, cells were then incubated in appropriate fluorescent secondary antibody 1:250 (Invitrogen) for 2 hours at room temperature. After a final wash, as previous, cells nuclei were stained with DAPI in the mounting media. Photomicrographs were taken of the cells in three fields of view per well from duplicate wells and analysed using Fiji for area coverage of each marker.
Treatment groups include: • (1) Control: PBS Buffer • (2) Positive control: Inflammatory stimulation by Interferon gamma and Interleukin-1B activation Prednisone (PDN) concentration 5 uM • (3) Combination therapy: Prednisone (PDN) 5 uM+NTI164 concentration 7.5ug/ml
Result Analysis: Calculated as % reduction in inflammation, PDN versus Combination therapy (prednisone 5 uM+NTI164 concentration 7.5ug/ml). Student's t-test was used for statistical analysis.

[2] = tested on: cells in an excitotoxic cell injury paradigm; experiment: Cell death in an excitotoxic cell injury paradigm; format: cell-based
Experimental: Neuronal viability was quantified using MTT [3-(4,5-dimethylthiazol-2-yl-)-2,5-diphenyl-2H-tetrazolium bromide; Sigma]. NTI164 treated celled were able to increase the number of “healthy” cells under basal conditions following short term glutamate exposure. Cellular excitotoxicity was achieved via glutamate activation (3 mM). NTI164 was able to stimulate cell growth after short term glutamate induced “insult”.

[3] = tested on: COX-2; experiment: COX-2 immunohistochemistry in human derived microglial cells (Example 4); format: cell-based; settings: for COX-2 expression (Avg +/− SEM): 2 μg/ml, N=9
Experimental: Immunohistochemistry (Protein Level) Assay: Cells were fixed for 10 min with 4% paraformaldehyde (PFA) in PBS. After 3×5 minutes washing with PBS, cells were incubated with primary antibodies (anti-COX2) 1:1000 overnight at 4° C., and after 3×5 minutes washing in PBS, cells were then incubated in appropriate fluorescent secondary antibody 1:250 (Invitrogen) for 2 hours at room temperature. After a final wash, as previous, cells nuclei were stained with DAPI in the mounting media. Photomicrographs were taken of the cells in three fields of view per well from duplicate wells and analysed using Fiji for area coverage of each marker.
(§1) 500 mg of dried plant material of NTI164 is suspended in 20 ml of absolute ethanol (using 50 ml blue top falcon tubes appropriate for centrifugation) and stirred/shaken vigorously for 60 seconds. The tubes are then placed in a sonication bath for 10 mins at 35-40 C. Upon completion of the sonication samples are then placed in a tray shaker (200 rpm) for 30 minutes at room temperature. Once completed the samples are then centrifuged at 4400 rpm for 5 minutes. The supernatant is collected for testing and development.
Units used to describe treatments for test products and concentrations for NTI164. • a. 1/1000 dilution of extract—10 µL (stock material is NTI164—10 µL, which equates to 2 μg/ml of CBDA) • b. 1/3000 dilution of extract—3 µL (stock material is NTI164—3 µL, which equates to […] of CBDA) • c. 1/10000 dilution of extract—1 µL (stock material is NTI164—1 µL, which equates to 0.1 μg/ml of CBDA)
For the CBD sample, a pure standard (in powder form) was used. CBD 98% isolate was purchased as a reference standard from LGC Standards (London UK) (CAS No. 13956-29-1). The CBD standard reference was prepared at concentration of 1 mg/ml (in acetonitrile). CBD dilutions were made in acetonitrile as follows: 2 μg/ml; 6 μg/ml; and 0.1 μg/ml.
The final concentration of NTI164 (CBDA equivalent) and CBD that was used in these studies was 2 μg/ml.

[4] = tested on: IL-12; experiment: Multiplex cytokine assay, IL-12, microglial cells (Example 4); format: cell-based, human; settings: 2 μg/ml
Experimental: (§2) Multiplex Cytokine/Chemokine Assay: Microglia media harvested following treatment initiation was centrifuged briefly to remove particulates (300 g for 10 min). Cytokine and chemokine levels in the microglial media were measured using a Bio-Plex 200 with a 96-well magnetic plate assay according to the manufacturer's instructions (Bio-Rad). Cytokines and chemokines measured included IL-1α, IL-1β, IL-2, IL-6, IL-10, IL-12 (p70), IL-13, G-CSF, GM-CSF, IFNγ, TNFα, CXCL1 (KC), CCL2 (MCP-1), and CCL5 (RANTES). All samples were run in duplicate and data were analyzed with the Bio-Plex Manager software.
as §1
(§3) Units used to describe treatments for test products and concentrations for NTI164. • a. 1/1000 dilution of extract—10 µL (stock material is NTI164—10 µL, which equates to 2 μg/ml of CBDA) • b. […]

[5] = tested on: TNF-alpha; experiment: Multiplex cytokine assay, TNF-alpha, microglial cells (Example 4); format: cell-based, human; settings: 2 μg/ml
Experimental: as §2, §1, §3

[6] = tested on: TNFα; experiment: TNFα in microglial culture media, NTI164 plus psylocibin (Example 9); format: cell-based; settings: PBS Control 1.00, Positive activation I&I 10.67
Experimental: Microglia media harvested following treatment initiation was centrifuged briefly to remove particulates (300 g for 10 min). The level of TNFα in the microglial culture media was measured using a Bio-Plex 200 with a 96-well magnetic plate assay according to the manufacturer's instructions (Bio-Rad). The samples were run in duplicate that were averaged for analysis. At least three samples per group were run.

[7] = exposure 1 hour after inflammatory insult
[8] = exposure 1 hour prior to inflammatory insult
[9] = Interleukin and Interferon activation

How did the “COX-2 Protein” value [1] turn out when C[C@]12C=CC(=O)C=C1CC[C@@H]1[C@@H]2C(=O)C[C@@]2(C)[C@H]1CC[C@]2(O)C(=O)CO [PDN, Prednisone] was run?
Its value is 0.888.

With C=C(C)[C@@H]1CCC(C)=C[C@H]1c1c(O)cc(CCCCC)cc1O [CBD, cannabidiol] as the compound, how does the “cell death / toxicity” value [2] read?
The value was “toxic”.

And the “P, positive control vs treatment (COX-2)” value [3, 7]?
The value was “P = 0.0566”.

And the “COX-2 expression (Avg +/− SEM)” value [3, 7]?
The value was 76.32 +/− 7.95 (SEM).

What about the “P, positive control vs treatment (COX-2)” value [3, 8] of the same compound?
The value was “P = 0.3237”.

What about the “COX-2 expression (Avg +/− SEM)” value [3, 8] of the same compound?
The value was 84.82 +/− 7.65 (SEM).

What about the “Statistical Significance Reduction Compared to Control Alone (P), IL-12” value [4] of the same compound?
The value was “= 0.008”.

What about the “IL-12, Average” value [4, 9] of the same compound?
The value was 84.40.

What about the “Statistical Significance Reduction Compared to Control Alone (P), TNF-alpha” value [5] of the same compound?
Its value is “= 0.0005”.

What about the “TNF-alpha, Average” value [5, 9] of the same compound?
The value was 71.13.

Which “TNF-ALPHA ASSESSMENTS RESULTS” value ([6]; 1 ug/ml) does the source give for CN(C)CCc1c[nH]c2cccc(OP(=O)(O)O)c12 [SubP (Psylocibin), Psylocibin] here?
Its value is 4.87.

And the “TNF-ALPHA ASSESSMENTS RESULTS” value ([6]; 5 ug/ml)?
Its value is 9.17.

— patent US20250057858A1, “COMPOSITIONS AND METHODS FOR TREATING NEUROLOGICAL DISORDERS WITH COMBINATION PRODUCTS” (Neurotech International Ltd, priority 2021, published 2025)
